Measured values reported in patent US20240391902A1, “Crystalline Form of Compound” (Shenzhen Forward Pharmaceuticals Co., Limited, priority 2020, published 2024).

What was measured:
Dynamic solubility test = format: physicochemical; settings: room temperature, feeding concentration 10 mg/mL, listed as compound of formula (I)
Procedure: Determination method: According to a feeding concentration of 10 mg/mL, about 50 mg of the sample were weighed and added to 5 mL of the corresponding medium, and the sample was dissolved by rotating at […] at room temperature.

[1] = tested on: EGFR activating mutation (exon 19 deletion activating mutation, L858R activating mutation, T790M drug resistance mutation and exon 20 insertion mutation); settings: disclosed in CN105461695B; cited from earlier work

**Q.** Which results are given for `C=CC(=O)Nc1cc(Nc2ncnc(-c3cn(C)c4ccccc34)n2)c(OC)cc1N(C)CCN(C)C` [Example 21]?
**A.** dynamic solubility (Dynamic solubility test; SGF, 0.5 h): <1.0 mg/mL; dynamic solubility (Dynamic solubility test; SGF, 1 h): <1.0 mg/mL; dynamic solubility (Dynamic solubility test; SGF, 2 h): <1.0 mg/mL; dynamic solubility (Dynamic solubility test; SGF, 4 h): <1.0 mg/mL; dynamic solubility (Dynamic solubility test; SGF, 24 h): <1.0 mg/mL; dynamic solubility (Dynamic solubility test; water, 0.5 h): <1.0 mg/mL; dynamic solubility (Dynamic solubility test; water, 1 h): <1.0 mg/mL; dynamic solubility (Dynamic solubility test; water, 2 h): <1.0 mg/mL; dynamic solubility (Dynamic solubility test; water, 4 h): <1.0 mg/mL; dynamic solubility (Dynamic solubility test; water, 24 h): <1.0 mg/mL; inhibitory activity against EGFR activating mutation compared with wild-type EGFR (WT EGFR) [1]: significantly higher
